# From the supplement of paper PMC10307832
# Compound: CC[C@@H]1C(=O)N(C)c2cnc(Nc3ccc(C(=O)NC4CCN(C)CC4)cc3OC)nc2N1C1CCCC1 [BI-2536] + COc1cc2c(Oc3ccc(NC(=O)C4(C(=O)Nc5ccc(F)cc5)CC4)cc3F)ccnc2cc1OCCCN1CCOCC1 [Foretinib] (partner 0.25 µM)
# Experiment: relative viability (nuclei count vs DMSO), 5 days (fraction); higher = more cells survive
# Details: first compound 0.01 µM
# Method in brief: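 Values are medians from duplicate plates. Each reflects relative viability, defined as the nuclei count of treated wells over that of vehicle wells. Lung cancer cell lines in 1536-well plates were pin-tool dosed one day after seeding with one drug alone or with a fixed anchor-drug dose plus five library-drug doses (not always all listed) in √10 steps, then fixed, stained and imaged at 4× after 5 days.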
row,Cell Line,relative viability
1,COR-L23,1.04
2,COR-L 105,1.12
3,LOU-NH91,0.987
4,ChaGo-K-1,0.851
5,NCI-H2170,1.03
6,NCI-H2405,1.05
7,HOP-62,1.19
8,LU99A,0.716
9,BEN,0.564
10,HARA,0.97
11,HCC-78,0.554
12,NCI-H322M,0.98
13,LCLC-97TM1,0.958
14,NCI-H2009,1.18
15,A-427,1.02
16,NCI-H441,0.918

row,Cell Line,relative viability
1,NCI-H1734,0.886
2,NCI-H460,1.11
3,NCI-H2347,1.07
4,SK-LU-1,0.839
5,NCI-H1395,0.911
6,201T,1.1
7,NCI-H1915,1.13
8,HCC-827,1.03
9,LXF-289,1.03
10,NCI-H23,0.954
11,NCI-H647,1.35
12,CAL-12T,1.08
13,NCI-H1651,0.628
14,EPLC-272H,0.715
15,NCI-H2228,1.05

# Same assay, conditions: first compound 0.03162 µM
row,Cell Line,relative viability
1,COR-L23,1.04
2,COR-L 105,0.848
3,LOU-NH91,0.861
4,ChaGo-K-1,0.972
5,NCI-H2170,1.02
6,NCI-H2405,0.731
7,HOP-62,1.05
8,LU99A,0.812
9,BEN,0.818
10,HARA,1.07
11,HCC-78,0.505
12,NCI-H322M,0.842
13,LCLC-97TM1,0.91
14,NCI-H2009,0.94
15,A-427,0.919
16,NCI-H441,0.673

row,Cell Line,relative viability
1,NCI-H1734,0.889
2,NCI-H460,1.06
3,NCI-H2347,0.742
4,SK-LU-1,0.778
5,NCI-H1395,1.1
6,201T,0.896
7,NCI-H1915,0.975
8,HCC-827,0.958
9,LXF-289,0.826
10,NCI-H23,0.813
11,NCI-H647,1.16
12,CAL-12T,0.951
13,NCI-H1651,0.776
14,EPLC-272H,0.0998
15,NCI-H2228,0.583

# Same assay, conditions: first compound 0.1 µM
row,Cell Line,relative viability
1,COR-L23,0.453
2,COR-L 105,0.913
3,LOU-NH91,0.857
4,ChaGo-K-1,0.687
5,NCI-H2170,0.799
6,NCI-H2405,0.386
7,HOP-62,0.767
8,LU99A,0.329
9,BEN,0.361
10,HARA,0.746
11,HCC-78,0.534
12,NCI-H322M,0.834
13,LCLC-97TM1,0.637
14,NCI-H2009,0.547
15,A-427,1.08
16,NCI-H441,0.261

row,Cell Line,relative viability
1,NCI-H1734,0.464
2,NCI-H460,0.147
3,NCI-H2347,0.933
4,SK-LU-1,0.291
5,NCI-H1395,0.691
6,201T,0.612
7,NCI-H1915,0.618
8,HCC-827,0.86
9,LXF-289,0.613
10,NCI-H23,0.229
11,NCI-H647,0.649
12,CAL-12T,0.503
13,NCI-H1651,0.536
14,EPLC-272H,0.0735
15,NCI-H2228,0.217

# Same assay, conditions: first compound 0.3162 µM
row,Cell Line,relative viability
1,COR-L23,0.128
2,COR-L 105,0.366
3,LOU-NH91,0.363
4,ChaGo-K-1,0.164
5,NCI-H2170,0.219
6,NCI-H2405,0.296
7,HOP-62,0.182
8,LU99A,0.222
9,BEN,0.243
10,HARA,0.0569
11,HCC-78,0.402
12,NCI-H322M,0.389
13,LCLC-97TM1,0.149
14,NCI-H2009,0.265
15,A-427,0.166
16,NCI-H441,0.194

row,Cell Line,relative viability
1,NCI-H1734,0.199
2,NCI-H460,0.0166
3,NCI-H2347,0.311
4,SK-LU-1,0.213
5,NCI-H1395,0.339
6,201T,0.184
7,NCI-H1915,0.16
8,HCC-827,0.254
9,LXF-289,0.0393
10,NCI-H23,0.153
11,NCI-H647,0.101
12,CAL-12T,0.173
13,NCI-H1651,0.0828
14,EPLC-272H,0.0644
15,NCI-H2228,0.15

# Same assay, conditions: first compound 1 µM
row,Cell Line,relative viability
1,COR-L23,0.0906
2,COR-L 105,0.344
3,LOU-NH91,0.273
4,ChaGo-K-1,0.217
5,NCI-H2170,0.208
6,NCI-H2405,0.354
7,HOP-62,0.146
8,LU99A,0.175
9,BEN,0.248
10,HARA,0.0893
11,HCC-78,0.226
12,NCI-H322M,0.319
13,LCLC-97TM1,0.179
14,NCI-H2009,0.279
15,A-427,0.148
16,NCI-H441,0.222
17,NCI-H1734,0.176
18,NCI-H460,0.02
19,NCI-H2347,0.292
20,SK-LU-1,0.197
21,NCI-H1395,0.327
22,201T,0.212
23,NCI-H1915,0.143
24,HCC-827,0.234
25,LXF-289,0.0552
26,NCI-H23,0.162
27,NCI-H647,0.128
28,CAL-12T,0.187
29,NCI-H1651,0.0854
